Reference: patent US20240109924A1, “IP4-4,6 SUBSTITUTED DERIVATIVE COMPOUNDS” (SANIFIT THERAPEUTICS, S.A., priority 2021, published 2024)

Key:
[1] = system: blood perfusion; assay: In vivo blood perfusion (laser doppler perfusion imaging) in vitamin D3-induced limb ischemia rat model; conditions: average blood perfusion recovery vs vehicle and sham (sham 100%), SD rats, 30 mg/kg s.c. daily D1-D5
Procedure: (§1) The effects of compounds 1, 6, 9, 14, 18, 31, and 39 over blood perfusion and tissue calcification after the inception of limb ischemia were tested using a rat model for a duration of 5 days. Limb ischemia was induced to all groups from D1 to D3 excepting the sham group, to which no ischemia was induced. The animals were administered placebo and active agent formulations from D1 to D5. Observations were taken at several points during the treatment from D0 to D5. All animals were weighed every day before treatment. Seventy-two male Sprague Dawley (SD) rats (Envigo Corp., Huntingdon, GB) weighing approximately 150-200 g were used. The rats were fed with a […]® Rod14-H diet ([…] GmbH, Soest, DE). The rats were divided in 9 groups, 8 animals per group, as follows: • Group 1-Control (Sham) • Group 2-Physiological saline solution • Group 3-Compound 1 • Group 4-Compound 6 • Group 5-Compound 9 • Group 6-Compound 14 • Group 7-Compound 18 • Group 8-Compound 31 • Group 9-Compound 39 Limb ischemia was induced in the rats of groups 2-9 by subcutaneous administration of 150,000 IU/kg vitamin D3 (cholecalciferol, Duphafral D3 1000; Zoetis Inc., Parsippany, NJ, US) in physiological saline solution (2 mL/kg) every day during D1 to D3. The rats of group 1 were not administered vitamin D3. The rats in groups 1 and 2 were administered 2 mL/kg of physiological saline solution daily from D1 to D5 via subcutaneous route. The animals in groups 3-9 were administered subcutaneously 30 mg/kg of compounds 1, 6, 9, 14, 18, 31, and 39, respectively, in physiological saline solution (2 mL/kg), every day from D1 to D5. Limb functional and ischemia status were evaluated by using a laser doppler perfusion imaging apparatus PeriCam PSI Normal Resolution (Perimed AB, Järfälla, SE) in all groups at D0 and D5. The perfusion difference and perfusion ratio were calculated by comparing the baseline and either D0 or D5 readings for each group. In addition, the blood perfusion ratio of each treatment group (i.e., groups 2 to 9) to sham group was also calculated. All rats of groups 1-9 were sacrificed on D5 30 minutes after dosing for determining their Ca baseline values. The animals were anesthetized by isoflurane inhalation. The whole aorta, carotids, femoral arteries, heart, and right kidney of the subjects were collected for calcium content measurement. The tissues were lyophilized for 48-72 h and weighed. The lyophilized tissues were then digested using a 1:1 HNO3:HClO4 mixture in a dry bath incubator for 2-4 h at 180° C. The digested tissues were subsequently diluted using ultra-pure MilliQ® water (MilliporeSigma (Merck KGaA), Burlington, MA, US) to a final volume of 5 mL (i.e., for femoral arteries and carotids) of 10 mL (i.e., for heart, kidneys, and aorta). Calcium content was quantified via inductively coupled plasma optical emission spectrometry (ICP-OES) using an Optima 7300 DV ICP-OES System spectrometer (PerkinElmer, Inc., Waltham, MA, US) according to the manufacturer's instructions. Average blood perfusion recovery compared to vehicle and sham were also calculated. Recovery for sham was 100%. Blood perfusion recovery calculated was using the following equation: 100-((BP sham-BP new drug)/(BP sham-BP vehicle)*100).

[2] = In vitro inhibition of calcium phosphate crystallization in human plasma (spectrophotometric assay); assay type: biochemical; conditions: 0-100 μM, 1.5 mM phosphate, 12.5 mM calcium, pH 7.4, absorbance 550 nm, slope 6-24 min, read-out: Relative Potency
Procedure: The in vitro efficacy of the IP4-4,6 substituted derivatives (e.g., Compounds 1 to 53) of the invention on the inhibition of calcium phosphate crystallization in human plasma samples was evaluated according to a spectrophotometric assay previously described in the art (Ferrer M, et al., Sci Rep 2017; 7:6858, doi:10.1038/s41598-017-07203-x).
A 96-well plate was employed. Plasma was spiked (1 volume of the IP4-4,6 substituted derivatives of the invention per 19 volumes of plasma) with increasing concentrations of the derivatives in the range of 0-100 μM. Plasma was then centrifuged at 10,000 g at rt and subsequently mixed with a mixture of 5 mM hydrogen phosphate and 41.67 mM calcium to attain final concentrations of 1.5 mM phosphate and 12.5 mM calcium, respectively. All reagent solutions were filtered, and pH adjusted to 7.4.
Crystallization of calcium phosphate was monitored spectrophotometrically for 30 min at rt by measuring the increments in absorbance at 550 nm using the Biotek Powerwave XS Microplate spectrophotometer (BioTek Instruments, Inc., Winooski, VT, US). The plate was incubated at rt in an orbital shaker and absorbance measured every 3 min.
Plasma crystallization was assessed based on slope measurement in the linear range between 6 and 24 min from plots of increase in absorbance versus logarithm of time. The efficacy of different myo-inositol phosphates derivatives in preventing in vitro formation of calcium phosphate crystals was assessed in human plasma samples using the slopes obtained between 6- and 24-min. Inhibition of crystallization was measured by comparing the slopes of the control sample (blank plasma) with those of samples containing the inhibitor as shown below: […]

[3] = system: tissue calcification; assay: In vivo tissue calcification (calcium content by ICP-OES) in vitamin D3-induced limb ischemia rat model; conditions: SD rats, vitamin D3 150,000 IU/kg s.c. D1-D3, 30 mg/kg s.c. daily D1-D5, sacrifice D5; for Inhibition of calcification (%) Femoral: femoral arteries; for Inhibition of calcification (%) Kidney: right kidney
Procedure: as §1, with “D5.” for “D5. Limb functional and ischemia status were evaluated by using a laser doppler perfusion imaging apparatus PeriCam PSI Normal Resolution (Perimed AB, Järfälla, SE) in all groups at D0 and D5. The perfusion difference and perfusion ratio were calculated by comparing the baseline and either D0 or D5 readings for each group. In addition, the blood perfusion ratio of each treatment group (i.e., groups 2 to 9) to sham group was also calculated.”

| EC50 [2] [µM] | SMILES | BP recovery (%) [1] | Inhibition of calcification (%) Aorta [3] | Inhibition of calcification (%) Carotid [3] | Inhibition of calcification (%) Femoral [3] | Inhibition of calcification (%) Heart [3] | Inhibition of calcification (%) Kidney [3] |
| --- | --- | --- | --- | --- | --- | --- | --- |
| ≤ 5 | CCCCCO[C@@H]1[C@@H](OP(=O)([O-])[O-])[C@H](OCCCCC)[C@@H](OP(=O)([O-])[O-])[C@@H](OP(=O)([O-])[O-])[C@H]1OP(=O)([O-])[O-].[Na+].[Na+].[Na+].[Na+].[Na+].[Na+].[Na+].[Na+] [Compound 1, 4,6-O-dipentyl-myo-inositol-1,2,3,5-tetrakis(phosphate) octasodium salt] | Under (Average blood perfusion recovery over or under 25%.) | Over (Average inhibition percentage over or under 25% inhibition of calcification.) | Under (Average inhibition percentage over or under 25% inhibition of calcification.) | Over (Average inhibition percentage over or under 25% inhibition of calcification.) | Over (Average inhibition percentage over or under 25% inhibition of calcification.) | Over (Average inhibition percentage over or under 25% inhibition of calcification.) |
| ≤ 5 | O=P([O-])([O-])O[C@@H]1[C@@H](OCCCCCO)[C@H](OP(=O)([O-])[O-])[C@H](OP(=O)([O-])[O-])[C@H](OP(=O)([O-])[O-])[C@H]1OCCCCCO.[Na+].[Na+].[Na+].[Na+].[Na+].[Na+].[Na+].[Na+] [Compound 6, 4,6-O-bis(5-hydroxypentyl)-myo-inositol-1,2,3,5-tetrakis(phosphate) octasodium salt] | Over (Average blood perfusion recovery over or under 25%.) | Over (Average inhibition percentage over or under 25% inhibition of calcification.) | Under (Average inhibition percentage over or under 25% inhibition of calcification.) | Over (Average inhibition percentage over or under 25% inhibition of calcification.) | Over (Average inhibition percentage over or under 25% inhibition of calcification.) | Over (Average inhibition percentage over or under 25% inhibition of calcification.) |
| ≤ 5 | COCCCCCO[C@@H]1[C@@H](OP(=O)([O-])[O-])[C@H](OCCCCCOC)[C@@H](OP(=O)([O-])[O-])[C@@H](OP(=O)([O-])[O-])[C@H]1OP(=O)([O-])[O-].[Na+].[Na+].[Na+].[Na+].[Na+].[Na+].[Na+].[Na+] [Compound 9, 4,6-O-bis(5-methoxypentyl)-myo-inositol-1,2,3,5-tetrakis(phosphate) octasodium salt] | Over (Average blood perfusion recovery over or under 25%.) | Under (Average inhibition percentage over or under 25% inhibition of calcification.) | Under (Average inhibition percentage over or under 25% inhibition of calcification.) | Over (Average inhibition percentage over or under 25% inhibition of calcification.) | Over (Average inhibition percentage over or under 25% inhibition of calcification.) | Over (Average inhibition percentage over or under 25% inhibition of calcification.) |
| ≤ 5 | NCCCCCO[C@@H]1[C@@H](OP(=O)([O-])[O-])[C@H](OCCCCCN)[C@@H](OP(=O)([O-])[O-])[C@@H](OP(=O)([O-])[O-])[C@H]1OP(=O)([O-])[O-].[Na+].[Na+].[Na+].[Na+].[Na+].[Na+].[Na+].[Na+] [Compound 14, 4,6-O-bis(5-aminopentyl)-myo-inositol-1,2,3,5-tetrakis(phosphate) octasodium salt] | Over (Average blood perfusion recovery over or under 25%.) | Under (Average inhibition percentage over or under 25% inhibition of calcification.) | Under (Average inhibition percentage over or under 25% inhibition of calcification.) | Over (Average inhibition percentage over or under 25% inhibition of calcification.) | Over (Average inhibition percentage over or under 25% inhibition of calcification.) | Over (Average inhibition percentage over or under 25% inhibition of calcification.) |
